Assays:
[1] = biological target: Serine/threonine-protein kinase mTOR (Homo sapiens, UniProt P42345); assay: Inhibition of human mTOR measured after 30 mins in presence of ATP by Lanthascreen TR-FRET assay
[2] = biological target: Phosphatidylinositol 4,5-bisphosphate 3-kinase catalytic subunit alpha isoform (Homo sapiens, UniProt P42336); assay: Inhibition of PI3K alpha (unknown origin)
Chain of Phosphatidylinositol 4,5-bisphosphate 3-kinase catalytic subunit alpha isoform (P42336 whole entry, canonical isoform): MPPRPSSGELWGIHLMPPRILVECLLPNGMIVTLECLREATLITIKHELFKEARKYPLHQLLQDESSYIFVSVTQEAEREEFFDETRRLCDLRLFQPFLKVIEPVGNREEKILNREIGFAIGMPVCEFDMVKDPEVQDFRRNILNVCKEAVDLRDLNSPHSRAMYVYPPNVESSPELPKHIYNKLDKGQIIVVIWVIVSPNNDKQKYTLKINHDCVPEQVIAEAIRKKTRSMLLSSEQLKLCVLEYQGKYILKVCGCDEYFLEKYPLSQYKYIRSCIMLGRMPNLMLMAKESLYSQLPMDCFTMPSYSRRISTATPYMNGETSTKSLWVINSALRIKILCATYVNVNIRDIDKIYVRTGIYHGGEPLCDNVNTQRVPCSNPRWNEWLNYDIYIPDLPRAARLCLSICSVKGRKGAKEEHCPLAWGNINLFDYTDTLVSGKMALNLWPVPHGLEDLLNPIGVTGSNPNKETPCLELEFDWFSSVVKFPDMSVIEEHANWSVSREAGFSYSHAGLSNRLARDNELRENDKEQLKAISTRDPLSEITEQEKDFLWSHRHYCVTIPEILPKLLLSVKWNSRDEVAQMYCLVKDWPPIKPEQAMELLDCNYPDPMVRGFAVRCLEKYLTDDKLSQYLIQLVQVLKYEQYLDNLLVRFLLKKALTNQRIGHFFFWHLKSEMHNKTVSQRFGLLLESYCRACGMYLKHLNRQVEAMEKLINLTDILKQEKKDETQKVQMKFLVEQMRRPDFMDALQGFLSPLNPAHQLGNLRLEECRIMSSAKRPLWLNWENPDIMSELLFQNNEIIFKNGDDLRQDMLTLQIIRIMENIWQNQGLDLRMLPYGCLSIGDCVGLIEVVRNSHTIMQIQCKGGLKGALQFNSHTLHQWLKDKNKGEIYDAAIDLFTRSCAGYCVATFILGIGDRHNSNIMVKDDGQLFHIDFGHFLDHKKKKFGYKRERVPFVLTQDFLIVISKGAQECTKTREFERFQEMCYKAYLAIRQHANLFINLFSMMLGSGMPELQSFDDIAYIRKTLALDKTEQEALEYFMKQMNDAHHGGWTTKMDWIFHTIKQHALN

Structure (SMILES)	IC50 [1] [nM]	IC50 [2] [nM]
CNC(=O)Nc1ccc(-c2ncc3c(n2)N2CCOCC2CO3)cc1 (centres undefined)	501	50.1
C[C@@]12COCCN1c1nc(-c3ccc(NC(=O)NC4CC4)cc3)ncc1N(CC1CC1)C2=O	6.31	794

— ChEMBL document CHEMBL4359925, “Rational discovery of a highly novel and selective mTOR inhibitor” (Bioorg Med Chem Lett, 2019)
